Where two headings read alike, the source gives them in different places.
Legend:
[1] = Food effect on plasma pharmacokinetics, 200 mg crossover; assay type: in vivo, human; conditions: for AUC0-t, geometric mean / AUC0-∞, geometric mean / Cmax, geometric mean / median Tmax: 200 mg
Method: For MAD cohorts, blood samples were collected at 0, 0.25, 0.5, 1, 1.5, 2, 3, 4, 5, 6, 8 and 12 h on day 1; 0 h on day 2, 3, 4, 6 and 7; 0, 0.25, 0.5, 1, 1.5, 2, 3, 4, 5, 6, 8, 12, 24, 36 and 48 h on day 10. In food effect cohort, blood samples were collected at 0, 0.25, 0.5, 1, 1.5, 2, 3, 4, 5, 6, 8, 12, 24, 36, 48, 72, 96 and 120 h in period one of group A; 0, 0.25, 0.5, 1, 1.5, 2, 3, 4, 5, 6, 8, 12, 24, 36 and 48 h in period two of group A and the two periods of group B. Blood samples were centrifuged at 3,000 rpm for 10 min at 2–8 °C and stored at -80 °C until liquid chromatography-mass spectrophotometry (LC-MS/MS) analysis. Urine and feces samples were collected in period one of group A of food effect cohort with the intervals 0, 0–6, 6–12, 12–24, 24–48, 48–72, 72–96, 96–120 and 0–120 h, respectively. […]
Statistical analysis was performed using SAS software, version 9.4 (SAS Institute Inc., United States). Descriptive statistics were used to summarize continuous variables as cases, means with standard deviations, medians, maximum and minimum. For categorical variables, frequencies and percentages were used. A regression power model, relating log-transformed Cmax and AUC parameters to log-transformed dose, was used to investigate dose proportionality. Food effect pharmacokinetic parameters were analyzed using the mixed effect model with period, sequence and treatment as fixed effects and subjects as the random effect. Logarithmic transformation of Cmax, AUC0-∞ and AUClast were performed to calculate the 90% confidence intervals (CIs) of the geometric mean ratio (GMR) between fasting and fed administration. If the calculated 90% CI values fall entirely within the range of 0.80–1.25, it is indicative of no significant food effect.

myelofibrosis = assay: Myelofibrosis in JAK2V617F bone marrow transplanted mice; assay type: in vivo; conditions: 100 mg/kg, 5 weeks
[2] = Metabolic stability in liver microsomes; assay type: in vitro ADME, human
Method: (§1) The metabolic stability of ZG0128 (the dihydrochloride monohydrate of ZG0163) was evaluated using human, monkey, dog, rat, and mouse liver microsomes as the in vitro models. The percentages of residues for ZG0128 after incubating in human, monkey, dog, rat, and mouse liver microsomes for 60 minutes was 55.5%, 63.1%, 67.1%, 80.3%, and 79.0%, respectively. The CLint values of in vivo clearance were calculated to be 24.1, 21.6, 33.4, 10.7, 26.0 mL/min/kg, respectively. Thus its was speculated that ZG0128 was a medium clearance drug in humans, monkeys, and mice, a high clearance drug in dogs, and a low clearance drug in rats.
(§2) Using UPLC-UV/Q-TOF MS, the potential metabolites of ZG0128 in various liver microsomes (human, monkey, dog, rat and mouse liver microsomes) incubation systems were identified and the metabolic pathways of ZG0128 were speculated. The main metabolite of ZG0128 in above five types of liver microsomes were primary alcohol metabolite formed by morpholine ring-opening (M3). […]

[3] = tested on: myeloproliferative neoplasm; assay: JAK2V617F transgenic mouse model; assay type: in vivo, JAK2V617F transgenic mice; conditions: 100 mg/kg daily oral gavage, 4 weeks
Method: Suzhou Zelgen Biopharmaceuticals Co., Ltd. Jaktinib Hydrochloride Tablets Chemical Drug Class 1 New Drug […]
cells at a concentration of 1 μM. […]
effectively affect the primary cells harboring the JAK2V617F mutation in patients with […]
In Vivo Pharmacodynamic Study of ZG0128 in Mouse Model of Myeloproliferative Neoplasm
Primary myelofibrosis (PMF) is characterized by the formation of bone marrow fibrous tissues (scar-like) caused by the abnormal proliferation of three types of cells (platelets, white blood cells, and red blood cells). At present, there is still no particularly effective treatment for these diseases. JAKV617F transgenic mice and JAK2V617F bone marrow transplanted mice can develop the pathological characteristics of myeloproliferative neoplasm, which can be used to effectively evaluate the efficacy of drugs used in the treatment of myeloproliferative neoplasms.
HCD-57-JAK2V617F cells were intravenously injected into NSG mice. Three weeks later, the mice were injected intraperitoneally with a single dose of 200 mg/kg of compound ZG0128, and euthanized 4 h after drug administration. The results of […]
The ability of compound ZG0128 and its positive control drug ZG0192 to inhibit the pathological characteristics of myeloproliferative tumors (MPNs) was evaluated in a JAK2V617F bone marrow transplanted mouse model. […]

[4] = Metabolic stability in liver microsomes; assay type: in vitro ADME, dog
Method: as §1, §2

Jaktinib
Cmax, geometric mean (CV%) ([1]; 200 mg fasted): 237.98 (69.0) ng/ml
Tmax, median (min–max) ([1]; 200 mg fasted): 2.00 (0.50–5.00) h
Cmax, geometric mean (CV%) ([1]; 200 mg fed): 542.35 (32.1) ng/ml
Tmax, median (min–max) ([1]; 200 mg fed): 4.00 (3.00–5.00) h
AUC0-t, geometric mean ([1]; fasted (n = 12)): 1569.48 ng·h/mL
AUC0-∞, geometric mean ([1]; fasted (n = 12)): 1616.35 ng·h/mL
Cmax, geometric mean ([1]; fasted (n = 12)): 237.98 ng/mL
median Tmax ([1]; fasted state): 2 h
AUC0-t, geometric mean ([1]; fed (n = 12)): 4174.9 ng·h/mL
AUC0-∞, geometric mean ([1]; fed (n = 12)): 4207.38 ng·h/mL
Cmax, geometric mean ([1]; fed (n = 12)): 542.35 ng/mL
median Tmax ([1]; fed state): 4 h
AUC0-t, geometric mean ratio ([1]; fed vs fasted): 2.66
AUC0-∞, geometric mean ratio ([1]; fed vs fasted): 2.60
Cmax, geometric mean ratio ([1]; fed vs fasted): 2.28

Cl.Cl.O.[2H]C1([2H])COCC([2H])([2H])N1c1ccc(Nc2nccc(-c3ccc(C(=O)NCC#N)cc3)n2)cc1 [ZG0128, Jaktinib Dihydrochloride Monohydrate]
progression of myelofibrosis (myelofibrosis): significantly and effectively inhibited the progression of myelofibrosis
CLint of in vivo clearance [2]: 24.1 mL/min/kg
percentage of residue after 60 minutes [2]: 55.5%
counts of three types of blood cells and spleen volume [3]: significant decrease
CLint of in vivo clearance [4]: 33.4 mL/min/kg
percentage of residue after 60 minutes [4]: 67.1%
